Patent US20090239285A1, “TANDEM REAPEAT DNA CONSTRUCTS PRODUCING PROTEINS THAT ATTACK PLANT PATHOGENIC VIRUSES, FUNGI, AND BACTERIA BY DISRUPTING TRANSCRIPTION FACTORS ESSENTIAL FOR REPLICATION THEREOF IN PLANTS” (priority 2008, published 2009)
“Also recorded” adds a separate entry of the source. Read-outs that look alike come from different tables or passages of the source.

What was measured:
mammalian retroviruses = conditions: millimolar concentrations, in vitro; cited from earlier work
Mammalian rotaviruses = conditions: millimolar concentrations, in vitro; cited from earlier work
[1] = system: virus-infected host cells (HSV-1, HSV-2, HIV-1, Hepatitis C); experiment: Fate of virus-infected host cells after treatment; format: cell-based; conditions: for fate of virus and host cells: HIV-1, Hepatitis C and numerous other viruses
Excerpt: Because DnaJ proteins are zinc finger proteins, these proteins can be neutralized and render non-functional by using picolinic acid and derivatives thereof. DnaJ is essential for protein-related cellular functions in both non-infected normal plant and animal cells. […] In contrast, in virally infected cells, picolinic acid and derivatives thereof have pronounced toxic effects which may include suppression of DnaJ proteins. Virally infected cells were killed by picolinic acid and derivatives thereof by apoptosis. In plant cells, this process is denoted as PCD.
APOPTOSIS. Apoptosis is a morphological pattern of cell injury and an important mode of cell death (Robbins, Pathological Basis of Disease, 1999, 6th Ed). Apoptosis shares and overlaps common mechanisms with necrosis. […] This form of cell death is designed to eliminate defective, unwanted and damaged cells. For example, the inventors have shown that cells infected by Herpes Simplex Virus 1 (HSV; labialis) and HSV-2 genitalis are destroyed together with the host cells that they infected by apoptosis when exposed to pyridine carboxylates (Fernandez-Pol, Anticancer Res. 2002). […] Thus, the inventors believes that when host cells of animals or plants are infected by pathogenic viruses, unless the treatment is extremely quickly, the host cells and the virus will be destroyed. In fact, host cells defective, mutated, and reservoirs for the novo synthesis of viruses are unwanted host cells and must be eliminated in many instances to allow the survival of the organism.

recombinant MPS-1 = target: T1, recombinant MPS-1 (Homo sapiens, UniProt P42677); experiment: Gel shift assay and radioactive Zn65 release from recombinant MPS-1; format: biochemical; conditions: for zinc dependent binding of recombinant MPS-1 to DNA: gel shift assays
T1 construct: made in house
Excerpt: MPS-1 is a ubiquitous tumor marker and cell growth stimulator and is described in detail in the inventors' U.S. Pat. No. 5,243,041. MPS-1 has one zinc finger domain of the type CCCC. […] This is detected by a change in the electrophoretic mobility of MPS-1 under non-denaturing conditions. These experiments indicate that picolinic acid and derivatives should remove zinc and denature various types of zinc finger, zinc ring proteins, or other types of ZF motifs whether known or heretofore undiscovered, including animal or plant viral proteins such as nucleocapsid proteins of retrovirus or the nucleocapsid proteins of Geminivirus. Furthermore, the inventors have determined that any chemical compound, whether known or heretofore undiscovered, that will remove the zinc (or other metal) and denature the proteins or that will form a ternary complex (protein-zinc-chelator) can be effective as an antiviral agent, with nontoxic effects, provided that the agent conforms with certain specific structural requirements.

HSV-1 = conditions: in tissue culture and in animals; cited from earlier work
Orobanche ramose = conditions: Arabidopsis thaliana pre-treated with FU; cited from earlier work
Arabidopsis thaliana [2] = conditions: in vivo; cited from earlier work
HSV-2 = conditions: in tissue culture and in animals; cited from earlier work
[3] = target: T2, Zn(HIV1-F1) zinc finger peptide (N-terminal CCHC region of the HIV-LA1 gag polyprotein) (Human immunodeficiency virus type 1 group M subtype B, UniProt P03348); experiment: NMR studies of ligand binding by a zinc finger peptide from HIV-1; conditions: for binding to Zn(HIV1-F1): NMR spectroscopy, titration and NOESY
T2 construct: corresponds to the N-terminal CCHC region of the HIV-LA1 gag polyprotein (amino acids 390-470); made in house; host or cells: chemical synthesis (synthetic peptide)
Excerpt: The interaction between two of the ligands of this invention (Fusaric acid and picolinic acid) and their binding by a Zinc Finger Peptide from HIV-1 containing a zinc finger motif were studied by NMR spectroscopy (FIGS. 16, and 16.1-4).
The peptide sequence […], corresponds to the N-terminal CCHC region of the HIV-LA1 gag polyprotein (amino acids 390-470). The peptide containing the complex of zinc atom bound to the zinc finger domain of the peptide was named: Zn (HIV1-F1).
A synthetic oligonucleotide with sequence corresponding to a region of HIV-1 psi-packaging signal, d (ACGCC) was complexed with the peptide (South and Summers, 1993).Fusaric Acid [[…]] was denoted FSR-488 and picolinic acid [2-pyridine carboxylic acid] was denoted PCL-016. Interactions of FSR-488 and PCL-016 with the zinc finger peptide containing Zn [Zn(HIV1-F1)] were studied by NMR spectroscopy. […] Titration experiments with each of the two molecules caused shifts in the ^1H resonances of Zn(HIV1-F1) that are similar to those observed when the peptide binds analogs of its natural substrate. Two dimensional NOE correlation spectroscopy (NOESY) of the solution containing Zn(HIV1-F1) and FSR-488 gave cross peaks at frequencies that are consistent with contacts between FSR-488 and hydrogen nuclei in the hydrophobic cleft of the peptide.
A sample containing peptide (1.63 mM) and Zn^2+ (2 mM) was titrated with a solution of FSR-488. The experiment was monitored by one dimensional ^1H NMR spectroscopy. Under conditions in which the free zinc in the buffer was minimized, titrations with FSR-488 were conducted. Addition of FSR-488 yielded spectral shifts in the spectrum of the peptide (FIGS. 16, and 16.1-4). […] This experimental finding and conclusions led the inventors to run a second 2D NOESY experiment, this time at the higher concentration of FSR-488.
The NOESY spectrum at the high concentration of [FSR-488]. was considerable different than that measured at low concentrations of [FSR-488]. […] Interpretations for these assignments are presented in detailed below.

[4] = system: Common ornamental plant cells infected by viruses; experiment: Treatment of virus-infected ornamental plants with antiviral agents; conditions: viral strains not determined
[5] = system: SV40 transformed BALB-3T3 cells; conditions: cited from earlier work
[6] = system: normal cells (NRK, BALB 3T3, WI-348); conditions: cited from earlier work
[7] = system: virally-transformed cells; conditions: further incubation / longer exposure, all transformed cells; cited from earlier work
Arabidopsis thaliana [8] = conditions: cited from earlier work
[9] = system: iron incorporation into cells; conditions: cited from earlier work
[10] = system: Rice suspension cells and leaves; conditions: cited from earlier work; for hypersensitive response (HR): rice
[11] = system: normal cells (NRK, BALB 3T3, WI-348); experiment: Control of growth by picolinic acid in normal cells; conditions: normal animal cells
Excerpt: Cells transformed (made cancerous) by different viruses that contain ZFP respond differently to picolinic acid. […] Numerous transformed cell lines (Fernandez-Pol, Proc. Natl. Acad. Sci. USA, 74:2889-2893, 1977) were exposed to PA and the points of arrest varied. […] Two important facts emerged from studies with transformed cell lines.

NRK cells = conditions: cells treated with picolinic acid; cited from earlier work
[12] = system: tomato spotted wilt virus; conditions: cited from earlier work

## O=C(O)CN(CCN(CC(=O)O)CC(=O)O)CC(=O)O [EDTA]
Mammalian retroviruses
  viral integrity, measured by release of reverse transcriptase: partial disintegration of viral membranes
Mammalian rotaviruses
  viral integrity: partial disintegration of the viral membranes

## O=C(O)CN(CCOCCOCCN(CC(=O)O)CC(=O)O)CC(=O)O [EGTA]
Mammalian retroviruses
  viral integrity, measured by release of reverse transcriptase: partial disintegration of viral membranes
Mammalian rotaviruses
  viral integrity: partial disintegration of the viral membranes

## CCCCc1ccc(C(=O)O)nc1 [Fusaric acid, 5-butyl picolinic acid]
[1]
  fate of virus and host cells: Death by apoptosis
Recombinant MPS-1
  removal of zinc from CCCC zinc finger of MPS-1: remove radioactive Zn65; also recorded: remove zinc
  zinc dependent binding of recombinant MPS-1 to DNA: inhibit
HSV-1
  efficacy against viral infection: effective
Orobanche ramose
  germination of parasite: inhibited
Arabidopsis thaliana [2]
  concentration eliciting plant defense responses without toxic effects: 100 nM
  concentration reducing root growth and inducing membrane hyperpolarization then depolarization: > 500 µM
HSV-2
  efficacy against viral infection: effective
[3]
  binding to Zn(HIV1-F1): bind Zn(HIV1-F1) at a hydrophobic cleft
[3]; peptide 1.63 mM, Zn2+ 2 mM, free zinc minimized
  binding in one dimensional 1H NMR titration: competitively binds both Zn^2+ and the Zn^2+/Peptide complex
[4]
  outcome of treatment of virus-infected ornamental plants: positive results

## NC(=O)c1cccnc1 [Nicotinamide]
[5]; at 48h
  effect on cell growth or apoptosis: no effect
[5]
  morphology: flatten

## O=C(O)c1ccccn1 [Picolinic acid, 2-pyridine carboxylic acid]
[6]; Normal rat kidney (NRK) cells
  phase of cell cycle arrest: arrested in G1
[6]
  toxicity in normal cells: no toxic effects
[1]
  fate of virus and host cells: Death by apoptosis
[1]; virally infected cells
  fate of virally infected cells: killed
Recombinant MPS-1
  removal of zinc from CCCC zinc finger of MPS-1: remove radioactive Zn65; also recorded: remove zinc
  zinc dependent binding of recombinant MPS-1 to DNA: inhibit
[7]
  toxicity in transformed cells: cytotoxicity and cell death; also recorded: cell death by apoptosis
Arabidopsis thaliana [8]; dose-dependent and time dependent
  marker defense genes PR-1, PR-2 and PDF1.2: all induced
Arabidopsis thaliana [8]; including oxidative burst and cell death
  hypersensitive response (HR): induced HR
[9]
  incorporation of iron into the cells: inhibits incorporation of iron
  removal of radioiron from the cells: effectively removes radioiron
[10]; Rice suspension cells and leaves
  cell death: apoptosis
[10]; rice suspension cells, Ca2+-dependent
  reactive oxygen species (ROS): induced reactive oxygen species (ROS)
[10]
  hypersensitive response (HR): elicits hypersensitive-like response
[10]; listed as Alpha-picolinic acid
  hypersensitive response (HR): can elicit the hypersensitive response (HR)
[5]; 3 mM picolinic acid
  mitochondrial effect: released cytochrome c
[11]
  suppression of DnaJ-like proteins: did not lead to the suppression
[3]
  binding to Zn(HIV1-F1): bind Zn(HIV1-F1) at a hydrophobic cleft
NRK cells
  potency of prostaglandin E1 in elevating cyclic AMP: two to five times more potent
[4]
  outcome of treatment of virus-infected ornamental plants: positive results

## NC(=O)c1ncn([C@@H]2O[C@H](CO)[C@@H](O)[C@H]2O)n1 [Ribavirin]
[12]; tomato and tobacco plants
  use against virus: successfully used
[12]; tomato versus tobacco
  host in which most efficient: most efficient in tomato plants
